ChEMBL document CHEMBL1649519, “Mitochondrial DNA depletion in rat liver induced by fosalvudine tidoxil, a novel nucleoside reverse transcriptase inhibitor prodrug” (Antimicrob Agents Chemother, 2009)

What was measured:
Conditions in all cases: in vivo
Rattus norvegicus [1] = assay: Hepatotoxicity in Sprague-Dawley rat assessed as effect on plasma total bilirubin level at 15 to 100 mg/kg, po administered via gavage; assay type: toxicity, organism-based; set-up: dose 15-100 mg/kg, route oral
Rattus norvegicus [2] = assay: Hepatotoxicity in Sprague-Dawley rat assessed as plasma GPT level at 100 mg/kg, po administered via gavage (reference value: 78.3 +/- 8.2 U/l); assay type: toxicity, organism-based; set-up: dose 100 mg/kg, route oral
Rattus norvegicus [3] = assay: Hepatotoxicity in Sprague-Dawley rat assessed as copies of mitochondrial DNA per cell in liver at 100 mg/kg, po administered via gavage (reference value: 400 +/- 86 no_unit); assay type: toxicity, organism-based; set-up: dose 100 mg/kg, route oral
Rattus norvegicus [4] = assay: Toxicity in Sprague-Dawley rat assessed as liver weight at 100 mg/kg, po administered via gavage (reference value: 18 +/- 2.8 g); assay type: organism-based; set-up: dose 100 mg/kg, route oral
Rattus norvegicus [5] = assay: Toxicity in Sprague-Dawley rat assessed as terminal body weight at 100 mg/kg, po administered via gavage (reference value: 517 +/- 55 g); assay type: organism-based; set-up: dose 100 mg/kg, route oral
Rattus norvegicus [6] = assay: Hepatotoxicity in Sprague-Dawley rat assessed as copies of mitochondrial DNA per cell in inguinal fat pads at 100 mg/kg, po administered via gavage (reference value: 457 +/- 182 no_unit); assay type: toxicity, organism-based, Fat pad; set-up: dose 100 mg/kg, route oral
Rattus norvegicus [7] = assay: Hepatotoxicity in Sprague-Dawley rat assessed as copies of mitochondrial DNA per cell in sciatic nerves at 100 mg/kg, po administered via gavage (reference value: 457 +/- 182 no_unit); assay type: toxicity, organism-based, Sciatic nerve; set-up: dose 100 mg/kg, route oral
Rattus norvegicus [8] = assay: Hepatotoxicity in Sprague-Dawley rat assessed as copies of mitochondrial DNA per cell in gastrocnemius muscle at 100 mg/kg, po administered via gavage (reference value: 457 +/- 182 no_unit); assay type: toxicity, organism-based; set-up: dose 100 mg/kg, route oral
Rattus norvegicus [9] = assay: Toxicity in Sprague-Dawley rat assessed as mortality at 100 mg/kg, po administered via gavage; assay type: organism-based; set-up: dose 100 mg/kg, route oral
Rattus norvegicus [10] = assay: Hepatotoxicity in Sprague-Dawley rat assessed as copies of mitochondrial DNA per cell in gastrocnemius muscle at 15 mg/kg, po administered via gavage (reference value: 457 +/- 182 no_unit); assay type: toxicity, organism-based; set-up: dose 15 mg/kg, route oral
Rattus norvegicus [11] = assay: Toxicity in Sprague-Dawley rat assessed as liver weight at 15 mg/kg, po administered via gavage (reference value: 18 +/- 2.8 g); assay type: organism-based; set-up: dose 15 mg/kg, route oral
Rattus norvegicus [12] = assay: Hepatotoxicity in Sprague-Dawley rat assessed as copies of mitochondrial DNA per cell in inguinal fat pads at 40 mg/kg, po administered via gavage (reference value: 457 +/- 182 no_unit); assay type: toxicity, organism-based, Fat pad; set-up: dose 40 mg/kg, route oral
Rattus norvegicus [13] = assay: Hepatotoxicity in Sprague-Dawley rat assessed as copies of mitochondrial DNA per cell in sciatic nerves at 15 mg/kg, po administered via gavage (reference value: 457 +/- 182 no_unit); assay type: toxicity, organism-based, Sciatic nerve; set-up: dose 15 mg/kg, route oral
Rattus norvegicus [14] = assay: Hepatotoxicity in Sprague-Dawley rat assessed as copies of mitochondrial DNA per cell in gastrocnemius muscle at 40 mg/kg, po administered via gavage (reference value: 457 +/- 182 no_unit); assay type: toxicity, organism-based; set-up: dose 40 mg/kg, route oral
Rattus norvegicus [15] = assay: Hepatotoxicity in Sprague-Dawley rat assessed as copies of mitochondrial DNA per cell in sciatic nerves at 40 mg/kg, po administered via gavage (reference value: 457 +/- 182 no_unit); assay type: toxicity, organism-based, Sciatic nerve; set-up: dose 40 mg/kg, route oral
Rattus norvegicus [16] = assay: Toxicity in Sprague-Dawley rat assessed as liver weight at 40 mg/kg, po administered via gavage (reference value: 18 +/- 2.8 g); assay type: organism-based; set-up: dose 40 mg/kg, route oral
Rattus norvegicus [17] = assay: Toxicity in Sprague-Dawley rat assessed as mortality at 15 mg/kg, po administered via gavage; assay type: organism-based; set-up: dose 15 mg/kg, route oral
Rattus norvegicus [18] = assay: Hepatotoxicity in Sprague-Dawley rat assessed as copies of mitochondrial DNA per cell in inguinal fat pads at 15 mg/kg, po administered via gavage (reference value: 457 +/- 182 no_unit); assay type: toxicity, organism-based, Fat pad; set-up: dose 15 mg/kg, route oral
Rattus norvegicus [19] = assay: Hepatotoxicity in Sprague-Dawley rat assessed as copies of mitochondrial DNA per cell in liver at 40 mg/kg, po administered via gavage (reference value: 400 +/- 86); assay type: toxicity, organism-based; set-up: dose 40 mg/kg, route oral
Rattus norvegicus [20] = assay: Hepatotoxicity in Sprague-Dawley rat assessed as plasma GPT level at 15 mg/kg, po administered via gavage (reference value: 78.3 +/- 8.2 U/l); assay type: toxicity, organism-based; set-up: dose 15 mg/kg, route oral
Rattus norvegicus [21] = assay: Toxicity in Sprague-Dawley rat assessed as terminal body weight at 40 mg/kg, po administered via gavage (reference value: 517 +/- 55 g); assay type: organism-based; set-up: dose 40 mg/kg, route oral
Rattus norvegicus [22] = assay: Toxicity in Sprague-Dawley rat assessed as mortality at 40 mg/kg, po administered via gavage; assay type: organism-based; set-up: dose 40 mg/kg, route oral
Rattus norvegicus [23] = assay: Toxicity in Sprague-Dawley rat assessed as terminal body weight at 15 mg/kg, po administered via gavage (reference value: 517 +/- 55 g); assay type: organism-based; set-up: dose 15 mg/kg, route oral
Rattus norvegicus [24] = assay: Hepatotoxicity in Sprague-Dawley rat assessed as plasma GPT level at 40 mg/kg, po administered via gavage (reference value: 78.3 +/- 8.2 U/l); assay type: toxicity, organism-based; set-up: dose 40 mg/kg, route oral
Rattus norvegicus [25] = assay: Hepatotoxicity in Sprague-Dawley rat assessed as copies of mitochondrial DNA per cell in liver at 15 mg/kg, po administered via gavage (reference value: 400 +/- 86); assay type: toxicity, organism-based; set-up: dose 15 mg/kg, route oral

Row | Compound | Activity (Rattus norvegicus [1]) | Activity (Rattus norvegicus [2]) | Activity (Rattus norvegicus [3]) | Activity (Rattus norvegicus [4]) | Activity (Rattus norvegicus [5]) | Activity (Rattus norvegicus [6]) | Activity (Rattus norvegicus [7]) | Activity (Rattus norvegicus [8]) | Activity (Rattus norvegicus [9]) | other results
1 | O=c1[nH]cnc2c1ncn2[C@H]1CC[C@@H](CO)O1 [DIDANOSINE] | Non-toxic | 68.8 U/L | 193 | 16.2 g | 501 g | 129 | 219 | 489 | Non-toxic | –
2 | CCCCCCCCCCCCSC[C@@H](COP(=O)(O)OC[C@H]1O[C@@H](n2cc(C)c(=O)[nH]c2=O)C[C@@H]1F)OCCCCCCCCCC [FOSALVUDINE TIDOXIL] | Non-toxic | 96.7 U/L | 188 | 14.5 g | 428 g | 158 | 213 | 548 | Toxic | Activity (Rattus norvegicus [10]): 475; Activity (Rattus norvegicus [11]): 16.8 g; Activity (Rattus norvegicus [12]): 159; Activity (Rattus norvegicus [13]): 196; Activity (Rattus norvegicus [14]): 534; Activity (Rattus norvegicus [15]): 205; Activity (Rattus norvegicus [16]): 15.6 g; Activity (Rattus norvegicus [17]): Toxic; Activity (Rattus norvegicus [18]): 134; Activity (Rattus norvegicus [19]): 254; Activity (Rattus norvegicus [20]): 71 U/l; Activity (Rattus norvegicus [21]): 465 g; Activity (Rattus norvegicus [22]): Toxic; Activity (Rattus norvegicus [23]): 459 g; Activity (Rattus norvegicus [24]): 80.5 U/L; Activity (Rattus norvegicus [25]): 249
